# Patent US11815435B2, “Beta glucan immunopharmacodynamics” (HiberCell, Inc., priority 2017, dated 2023)
# System: anti-β-glucan antibody (ABA IgG, ABA IgM)
# Assay: Example 1: IgG and IgM ABA levels in a cancer subject on IVIG, IMPRIME PGG and pembrolizumab
# Format: in vivo, human
# Conditions: same subject and regimen
# Protocol: Soluble β-glucan immunotherapy was administered to a subject diagnosed with glucaganoma. The subject's ABA level prior to immunotherapy treatment placed them in the Low-ABA subgroup, and therefore, their ABA level was boosted by administration of IVIG. GAMMAGARD at 100 mg/ml was intravenously administered prior to each treatment, which provided 161 μg ABA/ml. […] Each cycle was 3 weeks.
substance,measurement,setting,value
pembrolizumab [reference compound],ABA IgG,"cycle 1, day 2 EOI pembro",18.2 µg/mL
same,ABA IgM,"cycle 1, day 2 EOI pembro",5.3 µg/mL
same,ABA IgG,"cycle 2, day 1 EOI-pembro",49.4 µg/mL
same,ABA IgM,"cycle 2, day 1 EOI-pembro",9.6 µg/mL
same,ABA IgG,"cycle 3, day 1 EOI-pembro",60.7 µg/mL
